# Measured values published in patent US20140163067A1, “Methods of Treatment of Limited Cognitive Impairment” (ENVIVO PHARMACEUTICALS, INC., priority 2011, published 2014).
# System: subjects suffering from LCI
# Assay: Sensory electrophysiological responses (P50 gating, MMN, P300, N100) in LCI subjects
# Type: in vivo, human
# Conditions: compared with placebo, effects expected at a daily dose as low as 0.3 mg, dosed daily for 20 days
# Method: These effects are expected at a daily dose as low as 0.3 mg of (R)-7-chloro-N-(quinuclidin-3-yl)benzo[b]thiophene-2-carboxamide hydrochloride.
# Impairment of the ability of central nervous system to inhibit irrelevant sensory information has long been used as a model for understanding the deficits of attention seen in subjects. Two approaches to the measurement of this ability have commonly been employed (see (Heinrichs, 2004; Potter et al., 2006; Turetsky et al., 2007; Umbricht and Krljes, 2005) for reviews and meta-analyses): (1) the sensory gating paradigm in which the presentation of one stimulus normally suppresses the response elicited by a stimulus which rapidly follows it; and (2) the oddball or orienting paradigm in which a rare or unexpected event elicits a diminished response in subjects because attentional resources are inappropriately focused on less salient aspects of the environment.
# Two responses are commonly used assess brain activity: (1) the auditory P50 response elicited by the second member of a pair of clicks; and (2) the mismatch negativity (MMN) or N2 response evoked by a rarely occurring pure tone of no instructed relevance to the subject. Abnormalities in both P50 gating and the MMN have been reported in schizophrenic subjects. […]
smiles,measurement,value
Cl.O=C(N[C@H]1CN2CCC1CC2)c1cc2cccc(Cl)c2s1 [(R)-7-chloro-N-(quinuclidin-3-yl)benzo[b]thiophene-2-carboxamide hydrochloride],sensory electrophysiological responses which correlate with improved cognitive and functional performance,can improve sensory electrophysiological responses
